This note sets out measurements from patent publication US9399663B2, “Competitive inhibitor of GP120” (priority 2014, dated 2016).

Several values for one entry are separate records, joined by “and”; a condition that tells them apart may be missing. Equal values may be shown once. Entries after “also recorded” stand apart in the source; their conditions may differ. Residues, ends and D or L forms follow the SMILES beside them.

The test system of one data set is rat cortical neurons. The experiment in a line: Penetration of neuronal membranes (confocal microscopy, transmission electron microscopy). Particulars: 5 μM, 24 hours, FITC-labeled; listed as Helix-A peptide. The data set is classed as cell-based. Here is the method:
FTIR spectra of Helix-A nano. The gray line highlights the Amide region typical of peptide components. c. […] Representative images obtained by transmission electron microscopy showing unmodified MSN and Helix-A nano in intact and open lysosomes, respectively. Bar=500 nm.
Primary cortical neurons: Cortical neuronal cultures were prepared from the cortex of embryonic (E17-18) Sprague Dawley rats (Charles River, Mass.). Cells were seeded onto poly-L-lysine pre-coated plates in Neurobasal Medium containing 2% B27 supplement, […] glutamate, 0.5 mM L-glutamine, and 1% antibiotic-antimycotic solution (INVITROGEN®, Carlsbad, Calif.). Cultures were grown at 37° C. in 5% CO2/95% air for 7 days. Cultures contained ˜5% of non-neuronal cells. […]
Immunocytochemistry of primary neurons: Primary cortical neurons were maintained on glass coverslips for 7 days and fixed in 4% paraformaldehyde/phosphate buffer with 4% sucrose for 20 minutes at room temperature (RT). […] Coverslips were washed with PBS-T and correspondent fluorescence-conjugated secondary antibody (1:2000; INVITROGEN®, CA) were applied for 1 hour at RT. […] Image scale was calibrated and length of MAP-2 positive processes was measured in 10 neurons per field using ImageJ.

The next data set concerns the target T1, recombinant TUBB3 (Homo sapiens, UniProt Q13509).
T1 construct: purchased MyBioSource, San Diego, Calif
The data set is described as follows: SPR (BIACORE T200) binding to immobilized TUBB3. Particulars: 10 uM peptide alone; 60 sec injection. Here is the method: (§1) Surface plasmon resonance (SPR). BIACORE® T200™ was used to determine the kinetic parameters for the binding of recombinant TUBB3, tubulin dimer, and assembled microtubules (ligands) to the various isoforms of gp120 or related peptides (analytes). Recombinant TUBB3, tubulin dimer, and assembled MTs were covalently attached to different flow cells of a carboxymethyldextran (CM5) sensor chip by amine coupling. The chip surface was activated for 720 sec at 10 μL/min with of 1:1 mixture of 0.1 M N-Hydroxysuccinimide (NHS) and 0.5 M 1-Ethyl-3-(-3-dimethylaminopropyl)-carbodiimide hydrochloride (EDC). […] After ligand capture, the surfaces were deactivated by injecting 1 M ethanolamine for 720 sec at 10 μL/min. HBS-P (10 mM HEPES, pH7.4, 150 mM NaCl, 0.05% P-20) with 2 mM MgCl2 used as the running buffer. Flow cell 1 on each chip was left empty and used for reference surface. […] Kinetic studies were performed by injecting different concentrations of the analytes in triplicate. The chip surface was regenerated by with 10 mM glycine pH 1.5 injected for 30 sec at a flow rate of 100 μL/min. Each sample was injected for 60 sec (contact time) followed by a dissociation time of 300 sec at a flow rate of 100 μL/min. Data was analyzed with BIACORE® T200™ Evaluation Software (version 1) to determine the equilibrium dissociation constant (KD) from a 1:1 binding model. Binding studies with peptides Helix A and Helix B were done in the same way as described above. Kinetic studies were performed by injecting different concentrations (20 μM, 10 μM, 5 μM, 2.5 μM, 1.25 μM and 0.625 μM) of Helix A and Helix B. Competition experiments with Helix A and Helix B were performed by mixing 100 nM gp120 isoforms with 10 μM of each peptide and injecting over the sensorchip surface.
Recombinant TUBB3, tubulin dimer, and assembled MTs from bovine brains were immobilized on a BIACORE® CM5 chip by amine coupling. Different concentrations of gp120s (from 3.13 to 100 nM) were injected over the surface in triplicates in each experiment. The kinetics of interaction was analyzed using a BIACORE® T200™ instrument. BiaEvaluation software was used to calculate binding affinities based on 1:1 binding model.
For orientation: Surface plasmon resonance follows binding to a sensor surface in real time, without labels.

In a further data set the test system is tubulin dimer. The data set is described as follows: SPR (BIACORE T200) binding to immobilized tubulin dimer. Also on record: species or system Porcine. Particulars: 1 uM peptide alone; 60 sec injection. As to the method: as §1
Recombinant TUBB3, tubulin dimer, and assembled MTs from bovine brains were immobilized on a BIACORE® CM5 chip by amine coupling. Different concentrations of gp120s (from 3.13 to 100 nM) were injected over the surface in triplicates in each experiment. The kinetics of interaction was analyzed using a BIACORE® T200™ instrument. […]

The next data set relates to assembled MTs. The data set is described as follows: SPR (BIACORE T200) binding to immobilized assembled microtubules. Particulars: 1 uM peptide alone; 60 sec injection. Further details: species or system Porcine. Here is the method:
Surface plasmon resonance (SPR). BIACORE® T200™ was used to determine the kinetic parameters for the binding of recombinant TUBB3, tubulin dimer, and assembled microtubules (ligands) to the various isoforms of gp120 or related peptides (analytes). Recombinant TUBB3, tubulin dimer, and assembled MTs were covalently attached to different flow cells of a carboxymethyldextran (CM5) sensor chip by amine coupling. The chip surface was activated for 720 sec at 10 μL/min with of 1:1 mixture of 0.1 M N-Hydroxysuccinimide (NHS) and 0.5 M 1-Ethyl-3-(-3-dimethylaminopropyl)-carbodiimide hydrochloride (EDC). […] After ligand capture, the surfaces were deactivated by injecting 1 M ethanolamine for 720 sec at 10 μL/min. HBS-P (10 mM HEPES, pH7.4, 150 mM NaCl, 0.05% P-20) with 2 mM MgCl2 used as the running buffer. Flow cell 1 on each chip was left empty and used for reference surface. TUBB3 (1040 RU), tubulin dimer (2086 RU), and assembled MTs (990 RU) were captured on the remaining 3 flow cells. Kinetic studies were performed by injecting different concentrations of the analytes in triplicate. The chip surface was regenerated by with 10 mM glycine pH 1.5 injected for 30 sec at a flow rate of 100 μL/min. Each sample was injected for 60 sec (contact time) followed by a dissociation time of 300 sec at a flow rate of 100 μL/min. Data was analyzed with BIACORE® T200™ Evaluation Software (version 1) to determine the equilibrium dissociation constant (KD) from a 1:1 binding model. Binding studies with peptides Helix A and Helix B were done in the same way as described above. Kinetic studies were performed by injecting different concentrations (20 μM, 10 μM, 5 μM, 2.5 μM, 1.25 μM and 0.625 μM) of Helix A and Helix B. Competition experiments with Helix A and Helix B were performed by mixing 100 nM gp120 isoforms with 10 μM of each peptide and injecting over the sensorchip surface.
Recombinant TUBB3, tubulin dimer, and assembled MTs from bovine brains were immobilized on a BIACORE® CM5 chip by amine coupling. […] The kinetics of interaction was analyzed using a BIACORE® T200™ instrument. […]

Data set [1] deals with T2, gp120 binding to Tubulin β-3 (Homo sapiens, UniProt Q13509).
T2 construct: purchased MyBioSource (TUBB3); Immunodiagnostics Inc, Woburn, Mass; (gp120s)
T2 sequence (Q13509 whole entry): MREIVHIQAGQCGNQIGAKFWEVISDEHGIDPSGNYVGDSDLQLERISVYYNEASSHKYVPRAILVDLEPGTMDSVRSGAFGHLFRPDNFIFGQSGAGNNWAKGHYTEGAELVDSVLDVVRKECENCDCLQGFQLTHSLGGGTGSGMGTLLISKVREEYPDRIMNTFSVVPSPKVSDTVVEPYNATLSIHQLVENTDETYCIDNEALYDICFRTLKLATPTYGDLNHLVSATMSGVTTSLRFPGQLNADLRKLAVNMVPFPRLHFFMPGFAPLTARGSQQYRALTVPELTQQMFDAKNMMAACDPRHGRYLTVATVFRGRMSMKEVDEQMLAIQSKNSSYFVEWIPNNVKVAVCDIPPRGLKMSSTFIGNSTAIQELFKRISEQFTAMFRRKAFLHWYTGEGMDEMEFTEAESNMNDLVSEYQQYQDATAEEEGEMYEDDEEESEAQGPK
The data set is described as follows: SPR competition: gp120 premixed with Helix peptide injected over TUBB3. Particulars: 60 sec injection. An excerpt:
(§2) BIACORE® T200™ was used to determine the kinetic parameters for the binding of recombinant TUBB3, tubulin dimer, and assembled MTs to gp120s in the absence and presence of Helix-A peptide. […] Representative data are from one of three independent experiments.
(§3) Surface plasmon resonance (SPR). BIACORE® T200™ was used to determine the kinetic parameters for the binding of recombinant TUBB3, tubulin dimer, and assembled microtubules (ligands) to the various isoforms of gp120 or related peptides (analytes). Recombinant TUBB3, tubulin dimer, and assembled MTs were covalently attached to different flow cells of a carboxymethyldextran (CM5) sensor chip by amine coupling. The chip surface was activated for 720 sec at 10 μL/min with of 1:1 mixture of 0.1 M N-Hydroxysuccinimide (NHS) and 0.5 M 1-Ethyl-3-(-3-dimethylaminopropyl)-carbodiimide hydrochloride (EDC). […] After ligand capture, the surfaces were deactivated by injecting 1 M ethanolamine for 720 sec at 10 μL/min. HBS-P (10 mM HEPES, pH7.4, 150 mM NaCl, 0.05% P-20) with 2 mM MgCl2 used as the running buffer. Flow cell 1 on each chip was left empty and used for reference surface. TUBB3 (1040 RU), tubulin dimer (2086 RU), and assembled MTs (990 RU) were captured on the remaining 3 flow cells. […] Data was analyzed with BIACORE® T200™ Evaluation Software (version 1) to determine the equilibrium dissociation constant (KD) from a 1:1 binding model. […]

Data set [2] concerns gp120 binding to tubulin dimer. The experiment in a line: SPR competition: gp120 premixed with Helix peptide injected over tubulin dimer. Also on record: species or system Porcine. Particulars: 60 sec injection. As to the method: BIACORE® T200™ was used to determine the kinetic parameters for the binding of recombinant TUBB3, tubulin dimer, and assembled MTs to gp120s in the absence and presence of Helix-A peptide. Gp120s (100 nM) were injected over the surface alone or as a premix with Helix-A peptides (10 μM). Representative data are from one of three independent experiments.
as §3, with “surface.” for “surface. TUBB3 (1040 RU), tubulin dimer (2086 RU), and assembled MTs (990 RU) were captured on the remaining 3 flow cells.”

In data set [3] the test system is gp120 binding to microtubules. The experiment in a line: SPR competition: gp120 premixed with Helix peptide injected over microtubules. Further details: species or system Porcine. Particulars: 60 sec injection.
Excerpt: as §2, §3

[4] abbreviates: 100 nM GP120IIIB + 1 uM peptide.
The mark [5] stands for this setting: 100 nM GP120IIIB + 10 uM peptide.

T1 sequence (Q13509 whole entry): as above

On to `CC[C@H](C)[C@H](NC(=O)[C@H](CC(=O)O)NC(=O)[C@H](CCC(=O)O)NC(=O)[C@H](Cc1c[nH]cn1)NC(=O)[C@H](CCSC)NC(=O)[C@H](CCC(N)=O)NC(=O)[C@H](CCC(=O)O)NC(=O)[C@@H](NC(=O)[C@H](CCSC)NC(=O)[C@H](CC(=O)O)NC(=O)[C@@H](N)CC(N)=O)C(C)C)C(=O)N[C@H](C(=O)N[C@@H](CO)C(=O)N[C@@H](CC(C)C)C(=O)N[C@@H](Cc1c[nH]c2ccccc12)C(=O)N[C@@H](CC(=O)O)C(=O)N[C@@H](CCC(N)=O)C(=O)N[C@@H](CO)C(=O)N[C@@H](CC(C)C)C(=O)N[C@@H](CCCCN)C(=O)O)[C@@H](C)CC` [Helix A] (H-NDMVEQMHEDIISLWDQSLK-OH; N-terminus and C-terminus assumed), for which the “penetration of neuronal cell membrane” value in the data set with rat cortical neurons was “could not penetrate; also recorded: not cell-membrane-penetrable”.
With “RAKWNNTLKQIASK (listed as Homo sapiens) [Helix B]”, the “SPR response (2-1) RU, Fc2: Tubulin β-3 1092 RU” value in the data set with recombinant TUBB3 was 1.1 RU and 1.2 RU; in data set [1] (setting [4]) it was 33 RU; in data set [1] (setting [5]) it was 34 RU and 32 RU. Besides, the “SPR response (3-1) RU, Fc3: Tubulin Dimer 1900 RU” value with tubulin dimer was 0.4 RU and 0.5 RU; in data set [2] (setting [4]), 18.5 RU; in data set [2] (setting [5]) it was 20 RU and 18 RU. Also, the “SPR response (4-1) RU, Fc4: Microtubules 970 RU” value with assembled MTs was “N/B”; in data set [3] (setting [4]) it was 16.5 RU; in data set [3] (setting [5]), 19 RU and 20 RU.
